According to US20240102898A1, “IMPROVED METHOD FOR OPTICALLY CLEARING A TISSUE SAMPLE FOR A LIGHT MICROSCOPY EXAMINATION” (MobiCron GmbH, priority 2020, published 2024):

Columns and labels:
[1] = comparison of embedding media; cited from earlier work
[2] = Vapor pressures of embedding media (FIG. 1, from the literature)
Text: The vapor pressures of various embedding media are known from the literature.

Row | SMILES | vapor pressure (in words) [1] | vapor pressure, times lower than that of ethyl cinnamate ([2]; at 25° C.) | volatility, times less volatile than DBE ([2]; expanded section in FIG. 1)
1 | O=C(Cc1ccccc1)OCc1ccccc1 [benzyl phenylacetate, benzyl 2-phenylacetate] | lowest vapor pressure | approximately 275 times | about 4 times
2 | CCOC(=O)C=Cc1ccccc1 [ethyl cinnamate, reference compound] | comparatively high vapor pressure |  | 
